Tests used:
Caco-2 [1] = test: drug sensitivity score (DSS) for viability; higher = more toxic; extreme values may be limits of the assay; conditions: 72 h
HepG2 [2] = test: as above; conditions: 72 h
Calu-3 [3] = test: as above; conditions: 72 h
U2OS [4] = test: as above; conditions: 72 h
Vero E6 [5] = test: as above; conditions: 72 h
[6] = tested on: A549-ACE2 infected with SARS-CoV-2; test: SARS-CoV-2 infection rate relative to DMSO; higher = more infection; conditions: 24 h
Caco-2 [7] = test: relative viability EC50 (midpoint between 100% and the lowest measured viability); higher = less toxic; conditions: 72 h
HepG2 [8] = test: as above; conditions: 72 h
U2OS [9] = test: as above; conditions: 72 h
Vero E6 [10] = test: as above; conditions: 72 h
[11] = tested on: A549-ACE2 infected with SARS-CoV-2; test: cell count relative to DMSO; higher = less toxic; conditions: 24 h
A549-ACE2 [12] = test: phospholipidosis EC50; higher = less potent phospholipidosis inducer
Caco-2 [13] = test: cell viability relative to DMSO; higher = less toxic; conditions: 72 h
HepG2 [14] = test: as above; conditions: 72 h
Calu-3 [15] = test: as above; conditions: 72 h
U2OS [16] = test: as above; conditions: 72 h
Vero E6 [17] = test: as above; conditions: 72 h
[18] = tested on: A549-ACE2 infected with SARS-CoV-2; test: morphology score (similarity to uninfected cells); higher = more like uninfected cells; conditions: 24 h
A549-ACE2 [19] = test: drug-induced phospholipidosis relative to tamoxifen; higher = more phospholipidosis
Calu-3 [20] = test: relative viability EC50 (midpoint between 100% and the lowest measured viability); higher = less toxic; conditions: 72 h

C[C@@H]1CN(CCCn2c3ccccc3c3ccccc32)C[C@H](C)N1 [rimcazole]
Conditions	drug sensitivity score	relative viability EC50 [µM]
Caco-2 [1]	0.2	–
Caco-2 [7]	–	> 10
Calu-3 [3]	3.5	–
HepG2 [2]	0.6	–
HepG2 [8]	–	> 10
U2OS [4]	0	–
U2OS [9]	–	> 10
Vero E6 [5]	0.7	–
Vero E6 [10]	–	> 10

Conditions	SARS-CoV-2 infection rate [%]	cell count [%]	cell viability [%]	morphology score	phospholipidosis EC50 [µM]
A549-ACE2 [12], 24 h	–	–	–	–	2.9
A549-ACE2 [12], 48 h	–	–	–	–	5.12
A549-ACE2 [12], 72 h	–	–	–	–	5.72
Caco-2 [13], 1 nM	–	–	96	–	–
Caco-2 [13], 10 nM	–	–	99.5	–	–
Caco-2 [13], 100 nM	–	–	93.4	–	–
Caco-2 [13], 1000 nM	–	–	90.8	–	–
Caco-2 [13], 10000 nM	–	–	87	–	–
Calu-3 [15], 1 nM	–	–	103	–	–
Calu-3 [15], 10 nM	–	–	88.6	–	–
Calu-3 [15], 100 nM	–	–	100	–	–
Calu-3 [15], 1000 nM	–	–	90.2	–	–
Calu-3 [15], 10000 nM	–	–	60.1	–	–
HepG2 [14], 1 nM	–	–	106	–	–
HepG2 [14], 10 nM	–	–	105	–	–
HepG2 [14], 100 nM	–	–	98	–	–
HepG2 [14], 1000 nM	–	–	106	–	–
HepG2 [14], 10000 nM	–	–	76.4	–	–
U2OS [16], 1 nM	–	–	100	–	–
U2OS [16], 10 nM	–	–	98.1	–	–
U2OS [16], 100 nM	–	–	105	–	–
U2OS [16], 1000 nM	–	–	96.8	–	–
U2OS [16], 10000 nM	–	–	96.4	–	–
Vero E6 [17], 1 nM	–	–	97.9	–	–
Vero E6 [17], 10 nM	–	–	97.9	–	–
Vero E6 [17], 100 nM	–	–	94.4	–	–
Vero E6 [17], 1000 nM	–	–	98.2	–	–
Vero E6 [17], 10000 nM	–	–	81.7	–	–
[6], 0.3 µM	104	–	–	–	–
[6], 3 µM	43	–	–	–	–
[6], 10 µM	13	–	–	–	–
[6], 30 µM	41	–	–	–	–
[11], 0.3 µM	–	108	–	–	–
[11], 3 µM	–	122	–	–	–
[11], 10 µM	–	117	–	–	–
[11], 30 µM	–	101	–	–	–
[18], 0.3 µM	–	–	–	0.08	–
[18], 3 µM	–	–	–	0.76	–
[18], 10 µM	–	–	–	0.81	–
[18], 30 µM	–	–	–	0.11	–

drug-induced phospholipidosis [%], A549-ACE2 [19]
Conditions	0.3 µM	0.833333 µM	3.33333 µM	6.66667 µM	10 µM	30 µM
24 h	4.49	10.3	68.5	99.3	102	118
48 h	7.19	8.94	52.5	90.8	105	135
72 h	8.99	8.76	45.8	87	106	137

Fc1ccc(-n2cc(CCCCN3CCC4(CC3)OCc3ccccc34)c3ccccc32)cc1 [siramesine]
Conditions	drug sensitivity score	relative viability EC50 [µM]
Caco-2 [1]	3.3	–
Caco-2 [7]	–	3.26
Calu-3 [3]	4.2	–
Calu-3 [20]	–	3.44
HepG2 [2]	4.4	–
HepG2 [8]	–	3.03
U2OS [4]	2.2	–
Vero E6 [5]	2.2	–

Conditions	SARS-CoV-2 infection rate [%]	cell count [%]	cell viability [%]	morphology score	phospholipidosis EC50 [µM]
A549-ACE2 [12], 72 h	–	–	–	–	4.1
Caco-2 [13], 1 nM	–	–	97.3	–	–
Caco-2 [13], 10 nM	–	–	104	–	–
Caco-2 [13], 100 nM	–	–	85.1	–	–
Caco-2 [13], 1000 nM	–	–	101	–	–
Caco-2 [13], 10000 nM	–	–	37.5	–	–
Calu-3 [15], 1 nM	–	–	88.8	–	–
Calu-3 [15], 10 nM	–	–	94.3	–	–
Calu-3 [15], 100 nM	–	–	88.2	–	–
Calu-3 [15], 1000 nM	–	–	104	–	–
Calu-3 [15], 10000 nM	–	–	17.8	–	–
HepG2 [14], 1 nM	–	–	97.7	–	–
HepG2 [14], 10 nM	–	–	100	–	–
HepG2 [14], 100 nM	–	–	93.5	–	–
HepG2 [14], 1000 nM	–	–	98.6	–	–
HepG2 [14], 10000 nM	–	–	24	–	–
U2OS [16], 1 nM	–	–	100	–	–
U2OS [16], 10 nM	–	–	97.7	–	–
U2OS [16], 100 nM	–	–	95.6	–	–
U2OS [16], 1000 nM	–	–	103	–	–
U2OS [16], 10000 nM	–	–	53.2	–	–
Vero E6 [17], 1 nM	–	–	98.9	–	–
Vero E6 [17], 10 nM	–	–	93.5	–	–
Vero E6 [17], 100 nM	–	–	99.2	–	–
Vero E6 [17], 1000 nM	–	–	89	–	–
Vero E6 [17], 10000 nM	–	–	73.5	–	–
[6], 0.1 µM	93	–	–	–	–
[6], 0.3 µM	50	–	–	–	–
[6], 1 µM	60	–	–	–	–
[6], 3 µM	26	–	–	–	–
[11], 0.1 µM	–	111	–	–	–
[11], 0.3 µM	–	114	–	–	–
[11], 1 µM	–	117	–	–	–
[11], 3 µM	–	111	–	–	–
[18], 0.1 µM	–	–	–	0.38	–
[18], 0.3 µM	–	–	–	0.75	–
[18], 1 µM	–	–	–	0.69	–
[18], 3 µM	–	–	–	0.84	–

drug-induced phospholipidosis [%], A549-ACE2 [19]
Conditions	0.3 µM	0.833333 µM	3.33333 µM	6.66667 µM	10 µM
24 h	2.74	5.08	32.4	33.5	24.5
48 h	4.1	0.61	22.6	47.9	–
72 h	0.56	0.623	23.8	61.4	–

Cc1[nH]c(/C=C2\C(=O)Nc3ccc(F)cc32)c(C)c1C(=O)NCCN1CCCC1 [toceranib]
Conditions	drug sensitivity score	relative viability EC50 [µM]
Caco-2 [1]	0	–
Caco-2 [7]	–	> 10
HepG2 [2]	2	–
U2OS [4]	0.5	–
U2OS [9]	–	> 10
Vero E6 [5]	0.8	–

Conditions	SARS-CoV-2 infection rate [%]	cell count [%]	cell viability [%]	morphology score	phospholipidosis EC50 [µM]
A549-ACE2 [12], 24 h	–	–	–	–	16.5
Caco-2 [13], 1 nM	–	–	95.6	–	–
Caco-2 [13], 10 nM	–	–	94.8	–	–
Caco-2 [13], 100 nM	–	–	98.8	–	–
Caco-2 [13], 1000 nM	–	–	105	–	–
Caco-2 [13], 10000 nM	–	–	92.9	–	–
HepG2 [14], 1 nM	–	–	99.4	–	–
HepG2 [14], 10 nM	–	–	107	–	–
HepG2 [14], 100 nM	–	–	97.3	–	–
HepG2 [14], 1000 nM	–	–	106	–	–
HepG2 [14], 10000 nM	–	–	53.9	–	–
U2OS [16], 1 nM	–	–	95.5	–	–
U2OS [16], 10 nM	–	–	97.9	–	–
U2OS [16], 100 nM	–	–	103	–	–
U2OS [16], 1000 nM	–	–	96.3	–	–
U2OS [16], 10000 nM	–	–	85.2	–	–
Vero E6 [17], 1 nM	–	–	89.9	–	–
Vero E6 [17], 10 nM	–	–	99.1	–	–
Vero E6 [17], 100 nM	–	–	101	–	–
Vero E6 [17], 1000 nM	–	–	106	–	–
Vero E6 [17], 10000 nM	–	–	73.2	–	–
[6], 0.1 µM	88	–	–	–	–
[6], 0.3 µM	107	–	–	–	–
[6], 1 µM	100	–	–	–	–
[6], 3 µM	80	–	–	–	–
[11], 0.1 µM	–	107	–	–	–
[11], 0.3 µM	–	103	–	–	–
[11], 1 µM	–	102	–	–	–
[11], 3 µM	–	111	–	–	–
[18], 0.1 µM	–	–	–	0.22	–
[18], 0.3 µM	–	–	–	-0.03	–
[18], 1 µM	–	–	–	0.33	–
[18], 3 µM	–	–	–	0.51	–

drug-induced phospholipidosis [%], A549-ACE2 [19]
Conditions	0.3 µM	0.833333 µM	3.33333 µM	6.66667 µM	10 µM	30 µM
24 h	4.88	-0.73	12.9	38.6	54.2	119
48 h	5.94	-0.83	1.11	20.1	38.4	–
72 h	4.25	-2.8	-0.0471	16	34	–

— the supplement of paper PMC13380429
